{"source": "paper PMC8185074", "about": "“Anchor extension: a structure-guided approach to design cyclic peptides targeting enzyme active sites” (Nature Communications, 2021)", "format_in_all_cases": "biochemical", "key": {"HDAC6": {"target": "T1, HDAC6 (Homo sapiens, UniProt Q9UBN7)", "T1 construct": "purchased Reaction Biology Corporation (assay run by the CRO)", "T1 sequence (Q9UBN7 1-1215)": "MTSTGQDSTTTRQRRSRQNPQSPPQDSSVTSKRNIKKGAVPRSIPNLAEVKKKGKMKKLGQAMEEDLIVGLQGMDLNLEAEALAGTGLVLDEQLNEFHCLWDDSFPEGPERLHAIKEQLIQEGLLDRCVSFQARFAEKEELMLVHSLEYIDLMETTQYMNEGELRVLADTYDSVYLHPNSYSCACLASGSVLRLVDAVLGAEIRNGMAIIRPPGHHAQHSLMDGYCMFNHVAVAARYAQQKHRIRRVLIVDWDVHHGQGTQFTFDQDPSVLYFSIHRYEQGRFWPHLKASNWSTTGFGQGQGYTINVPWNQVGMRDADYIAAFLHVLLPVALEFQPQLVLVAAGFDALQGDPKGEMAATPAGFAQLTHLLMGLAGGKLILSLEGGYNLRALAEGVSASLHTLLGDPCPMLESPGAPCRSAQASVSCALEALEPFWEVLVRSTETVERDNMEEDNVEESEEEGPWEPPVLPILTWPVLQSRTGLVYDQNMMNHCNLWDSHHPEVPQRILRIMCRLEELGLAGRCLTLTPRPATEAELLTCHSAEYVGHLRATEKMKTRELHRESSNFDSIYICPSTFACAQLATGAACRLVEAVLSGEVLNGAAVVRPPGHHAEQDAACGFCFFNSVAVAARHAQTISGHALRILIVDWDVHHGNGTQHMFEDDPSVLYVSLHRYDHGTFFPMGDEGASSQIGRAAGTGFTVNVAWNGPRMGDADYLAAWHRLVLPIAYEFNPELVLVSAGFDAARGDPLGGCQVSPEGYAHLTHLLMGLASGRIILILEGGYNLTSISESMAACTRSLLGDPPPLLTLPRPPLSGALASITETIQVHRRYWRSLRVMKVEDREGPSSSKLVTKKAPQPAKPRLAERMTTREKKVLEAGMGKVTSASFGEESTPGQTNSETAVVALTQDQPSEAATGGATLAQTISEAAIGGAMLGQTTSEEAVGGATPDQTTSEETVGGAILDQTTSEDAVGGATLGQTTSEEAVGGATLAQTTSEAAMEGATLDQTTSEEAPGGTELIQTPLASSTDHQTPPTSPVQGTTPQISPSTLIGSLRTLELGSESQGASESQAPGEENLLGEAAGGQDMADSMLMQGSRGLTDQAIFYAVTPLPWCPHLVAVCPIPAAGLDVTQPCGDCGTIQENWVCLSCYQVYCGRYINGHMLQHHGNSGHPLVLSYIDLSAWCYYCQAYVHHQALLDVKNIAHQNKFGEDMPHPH", "assay": "HDAC6 inhibition, full IC50 measurement (Reaction Biology; fluorogenic p53 peptide RHKK(Ac)AMC)", "procedure,_shortened": "(§1)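 Inhibitory peptides were acoustically dispensed with enzyme, then substrate added; 1 h at 30 °C. Developer stopped reaction; plateau endpoint fluorescence (360/460 nm) gave IC50.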"}, "HDAC3": {"target": "T2, HDAC3 (Homo sapiens, UniProt O15379)", "T2 construct": "purchased Reaction Biology Corporation (assay run by the CRO)", "T2 sequence (O15379 whole entry)": "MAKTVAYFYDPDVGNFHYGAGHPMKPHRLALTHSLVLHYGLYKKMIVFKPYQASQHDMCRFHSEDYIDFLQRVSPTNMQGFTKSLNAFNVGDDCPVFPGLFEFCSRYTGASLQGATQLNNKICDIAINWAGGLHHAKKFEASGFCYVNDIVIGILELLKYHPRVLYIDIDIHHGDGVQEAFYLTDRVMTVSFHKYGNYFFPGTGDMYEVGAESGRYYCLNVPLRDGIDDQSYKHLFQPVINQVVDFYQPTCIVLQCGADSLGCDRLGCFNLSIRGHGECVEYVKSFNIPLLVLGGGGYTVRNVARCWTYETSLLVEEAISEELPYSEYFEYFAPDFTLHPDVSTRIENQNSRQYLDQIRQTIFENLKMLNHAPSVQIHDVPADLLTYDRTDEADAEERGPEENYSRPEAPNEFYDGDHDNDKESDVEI", "T2 sequence (Q9Y618 395-489 partner limits assumed)": "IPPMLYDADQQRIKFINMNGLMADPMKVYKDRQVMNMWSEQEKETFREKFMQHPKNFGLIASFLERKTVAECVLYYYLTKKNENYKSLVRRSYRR", "assay": "HDAC3 inhibition, full IC50 measurement (Reaction Biology; fluorogenic p53 peptide RHKK(Ac)AMC)", "procedure,_shortened": "as §1"}, "HDAC2": {"target": "T3, HDAC2 (Homo sapiens, UniProt Q92769)", "T3 construct": "purchased Reaction Biology Corporation (assay run by the CRO)", "T3 sequence (Q92769 whole entry)": "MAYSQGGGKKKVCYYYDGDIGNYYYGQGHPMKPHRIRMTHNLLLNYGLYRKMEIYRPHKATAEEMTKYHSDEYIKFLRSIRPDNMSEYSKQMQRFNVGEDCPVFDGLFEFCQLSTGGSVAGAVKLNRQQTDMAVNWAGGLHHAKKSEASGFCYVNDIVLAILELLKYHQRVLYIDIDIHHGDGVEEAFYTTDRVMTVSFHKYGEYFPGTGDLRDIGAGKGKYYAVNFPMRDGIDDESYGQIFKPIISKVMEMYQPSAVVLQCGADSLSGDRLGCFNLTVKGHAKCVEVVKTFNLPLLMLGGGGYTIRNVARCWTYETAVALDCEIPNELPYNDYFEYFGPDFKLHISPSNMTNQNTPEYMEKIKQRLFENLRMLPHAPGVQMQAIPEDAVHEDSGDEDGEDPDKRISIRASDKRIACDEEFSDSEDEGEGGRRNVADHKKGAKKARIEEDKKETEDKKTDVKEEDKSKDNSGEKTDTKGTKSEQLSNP", "assay": "Initial HDAC2 IC50 estimate (BPS Biosciences HDAC fluorogenic assay kit)", "settings": "Supplementary Dataset 2; read-out: HDAC2 activity (initial activity)", "procedure,_shortened": "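Inhibition measured by kit-based fluorogenic HDAC activity assays, with each point in duplicate or triplicate. Values come from a full 1 µM–100 pM series (1:10 steps) or are range estimates from just 20 nM and 200 nM.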"}}, "note": "Peptide text beside a SMILES is read from it.", "data": [{"smiles": "NCCCC[C@@H]1NC(=O)[C@@H]2CCCN2C(=O)[C@H](CC(N)=O)NC(=O)[C@H](CCCCCS)NC(=O)CNC(=O)[C@H](Cc2c[nH]c3ccccc23)NC(=O)[C@@H](CCCCN)NC(=O)[C@H](CCC(N)=O)NC1=O", "note": "[des1.1.0, SHA-Asn-Pro-Lys-Gln-dLys-Trp-Gly] (HELM PEPTIDE1{G.[O=C([C@H](CCCCCS)N[*:1])[*:2]].N.P.K.Q.[dK].W}$PEPTIDE1,PEPTIDE1,1:R1-8:R2$$$V2.0)", "values": [{"measurement": "HDAC6 activity raw data (signal)", "setting": "HDAC6; Conc. 1.00E-05 M, t1", "value": 8262}, {"measurement": "HDAC6 activity raw data (signal)", "setting": "HDAC6; Conc. 1.00E-05 M, t2", "value": -132}, {"measurement": "HDAC6 activity raw data (signal)", "setting": "HDAC6; Conc. 1.11E-06 M, t1", "value": 22357}, {"measurement": "HDAC6 activity raw data (signal)", "setting": "HDAC6; Conc. 1.11E-06 M, t2", "value": 16681}, {"measurement": "HDAC6 activity raw data (signal)", "setting": "HDAC6; Conc. 1.23E-07 M, t1", "value": 128420}, {"measurement": "HDAC6 activity raw data (signal)", "setting": "HDAC6; Conc. 1.23E-07 M, t2", "value": 107875}, {"measurement": "HDAC6 activity raw data (signal)", "setting": "HDAC6; Conc. 1.37E-08 M, t1", "value": 427941}, {"measurement": "HDAC6 activity raw data (signal)", "setting": "HDAC6; Conc. 1.37E-08 M, t2", "value": 374868}, {"measurement": "HDAC6 activity raw data (signal)", "setting": "HDAC6; Conc. 1.52E-09 M, t1", "value": 599157}, {"measurement": "HDAC6 activity raw data (signal)", "setting": "HDAC6; Conc. 1.52E-09 M, t2", "value": 570644}, {"measurement": "HDAC6 activity raw data (signal)", "setting": "HDAC6; Conc. 3.33E-06 M, t1", "value": 12160}, {"measurement": "HDAC6 activity raw data (signal)", "setting": "HDAC6; Conc. 3.33E-06 M, t2", "value": 5788}, {"measurement": "HDAC6 activity raw data (signal)", "setting": "HDAC6; Conc. 3.70E-07 M, t1", "value": 52219}, {"measurement": "HDAC6 activity raw data (signal)", "setting": "HDAC6; Conc. 3.70E-07 M, t2", "value": 39167}, {"measurement": "HDAC6 activity raw data (signal)", "setting": "HDAC6; Conc. 4.12E-08 M, t1", "value": 251632}, {"measurement": "HDAC6 activity raw data (signal)", "setting": "HDAC6; Conc. 4.12E-08 M, t2", "value": 228170}, {"measurement": "HDAC6 activity raw data (signal)", "setting": "HDAC6; Conc. 4.57E-09 M, t1", "value": 511649}, {"measurement": "HDAC6 activity raw data (signal)", "setting": "HDAC6; Conc. 4.57E-09 M, t2", "value": 482006}, {"measurement": "HDAC6 activity raw data (signal)", "setting": "HDAC6; Conc. 5.08E-10 M, t1", "value": 622162}, {"measurement": "HDAC6 activity raw data (signal)", "setting": "HDAC6; Conc. 5.08E-10 M, t2", "value": 563120}, {"measurement": "IC50", "setting": "HDAC6; unit printed only in the axis title, read-out: HDAC6 IC50 (printed in dose-response picture)", "value": 25, "unit": "nM"}, {"measurement": "HDAC3 activity raw data (signal)", "setting": "HDAC3; Conc. 1.00E-05 M, t1", "value": 5471}, {"measurement": "HDAC3 activity raw data (signal)", "setting": "HDAC3; Conc. 1.00E-05 M, t2", "value": 9474}, {"measurement": "HDAC3 activity raw data (signal)", "setting": "HDAC3; Conc. 1.11E-06 M, t1", "value": 58802}, {"measurement": "HDAC3 activity raw data (signal)", "setting": "HDAC3; Conc. 1.11E-06 M, t2", "value": 66090}, {"measurement": "HDAC3 activity raw data (signal)", "setting": "HDAC3; Conc. 1.23E-07 M, t1", "value": 406610}, {"measurement": "HDAC3 activity raw data (signal)", "setting": "HDAC3; Conc. 1.23E-07 M, t2", "value": 410292}, {"measurement": "HDAC3 activity raw data (signal)", "setting": "HDAC3; Conc. 1.37E-08 M, t1", "value": 1181819}, {"measurement": "HDAC3 activity raw data (signal)", "setting": "HDAC3; Conc. 1.37E-08 M, t2", "value": 1197870}, {"measurement": "HDAC3 activity raw data (signal)", "setting": "HDAC3; Conc. 1.52E-09 M, t1", "value": 1432990}, {"measurement": "HDAC3 activity raw data (signal)", "setting": "HDAC3; Conc. 1.52E-09 M, t2", "value": 1448071}, {"measurement": "HDAC3 activity raw data (signal)", "setting": "HDAC3; Conc. 3.33E-06 M, t1", "value": 23719}, {"measurement": "HDAC3 activity raw data (signal)", "setting": "HDAC3; Conc. 3.33E-06 M, t2", "value": 26034}, {"measurement": "HDAC3 activity raw data (signal)", "setting": "HDAC3; Conc. 3.70E-07 M, t1", "value": 182063}, {"measurement": "HDAC3 activity raw data (signal)", "setting": "HDAC3; Conc. 3.70E-07 M, t2", "value": 201749}, {"measurement": "HDAC3 activity raw data (signal)", "setting": "HDAC3; Conc. 4.12E-08 M, t1", "value": 761011}, {"measurement": "HDAC3 activity raw data (signal)", "setting": "HDAC3; Conc. 4.12E-08 M, t2", "value": 799167}, {"measurement": "HDAC3 activity raw data (signal)", "setting": "HDAC3; Conc. 4.57E-09 M, t1", "value": 1249527}, {"measurement": "HDAC3 activity raw data (signal)", "setting": "HDAC3; Conc. 4.57E-09 M, t2", "value": 1277477}, {"measurement": "HDAC3 activity raw data (signal)", "setting": "HDAC3; Conc. 5.08E-10 M, t1", "value": 1537856}, {"measurement": "HDAC3 activity raw data (signal)", "setting": "HDAC3; Conc. 5.08E-10 M, t2", "value": 1472354}, {"measurement": "IC50", "setting": "HDAC2", "value": "10 to 100", "unit": "nM"}]}]}
